Literature values, collected in patent publication US8623418B2, “Pharmaceutical composition” (Alpharma Pharmaceuticals LLC, priority 2007, dated 2014).

Conditions: in vivo

## O=C1CC[C@@]2(O)[C@H]3Cc4ccc(O)c5c4[C@@]2(CCN3CC2CC2)[C@H]1O5 [naltrexone]
  parent drug and metabolites excreted by the kidney: 53-79 % of the dose
